Key:
Test in all cases: Competitive isoTOP-ABPP, cell lysates
Assay type in all cases: binding
[1] = biological target: T1, ACAT1 C126 (P24752) (Homo sapiens, UniProt P24752); conditions: for isoTOP-ABPP reactivity profile ratio, P24752_C126 / isoTOP-ABPP reactivity ratio, P24752_C126: 500 μm; for R value (DMSO/fragment) / isoTOP-ABPP ratio, P24752_C126: 500 μM
T1 sequence (P24752 34-427): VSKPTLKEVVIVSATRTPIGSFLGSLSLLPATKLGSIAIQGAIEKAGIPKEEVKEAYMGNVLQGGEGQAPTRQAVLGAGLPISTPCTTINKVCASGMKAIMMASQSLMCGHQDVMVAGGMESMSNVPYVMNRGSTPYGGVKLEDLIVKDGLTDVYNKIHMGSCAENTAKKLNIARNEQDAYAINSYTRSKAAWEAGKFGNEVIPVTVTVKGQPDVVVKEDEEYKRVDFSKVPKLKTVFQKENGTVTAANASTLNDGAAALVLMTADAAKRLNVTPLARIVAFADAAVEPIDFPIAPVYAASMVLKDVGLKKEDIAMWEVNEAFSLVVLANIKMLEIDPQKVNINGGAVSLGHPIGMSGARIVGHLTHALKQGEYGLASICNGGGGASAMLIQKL

[2] = biological target: T2, ACAT1 C196 (P24752) (Homo sapiens, UniProt P24752); conditions: for R value (DMSO/fragment) / isoTOP-ABPP ratio, P24752_C196: 500 μM
T2 sequence (P24752 34-427): T1 sequence (P24752 34-427)

[3] = biological target: T3, ACAT1 C413 (P24752) (Homo sapiens, UniProt P24752); conditions: for isoTOP-ABPP reactivity profile ratio, P24752_C413 / isoTOP-ABPP reactivity ratio, P24752_C413: 500 μm
T3 sequence (P24752 34-427): T1 sequence (P24752 34-427)

[4] = biological target: T4, UCHL3 C95 (P15374) (Homo sapiens, UniProt P15374); conditions: for R value (DMSO/fragment) / isoTOP-ABPP ratio, P15374_C95: 500 μM
T4 sequence (P15374 1-230): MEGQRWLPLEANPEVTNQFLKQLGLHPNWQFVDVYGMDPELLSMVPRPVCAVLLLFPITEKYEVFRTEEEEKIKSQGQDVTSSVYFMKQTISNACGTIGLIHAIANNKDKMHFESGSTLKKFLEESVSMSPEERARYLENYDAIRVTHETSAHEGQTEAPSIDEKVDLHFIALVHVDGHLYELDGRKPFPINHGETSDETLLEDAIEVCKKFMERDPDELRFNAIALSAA

[5] = biological target: T5, PCK2 C306 (Q16822) (Homo sapiens, UniProt Q16822)
T5 sequence (Q16822 33-640): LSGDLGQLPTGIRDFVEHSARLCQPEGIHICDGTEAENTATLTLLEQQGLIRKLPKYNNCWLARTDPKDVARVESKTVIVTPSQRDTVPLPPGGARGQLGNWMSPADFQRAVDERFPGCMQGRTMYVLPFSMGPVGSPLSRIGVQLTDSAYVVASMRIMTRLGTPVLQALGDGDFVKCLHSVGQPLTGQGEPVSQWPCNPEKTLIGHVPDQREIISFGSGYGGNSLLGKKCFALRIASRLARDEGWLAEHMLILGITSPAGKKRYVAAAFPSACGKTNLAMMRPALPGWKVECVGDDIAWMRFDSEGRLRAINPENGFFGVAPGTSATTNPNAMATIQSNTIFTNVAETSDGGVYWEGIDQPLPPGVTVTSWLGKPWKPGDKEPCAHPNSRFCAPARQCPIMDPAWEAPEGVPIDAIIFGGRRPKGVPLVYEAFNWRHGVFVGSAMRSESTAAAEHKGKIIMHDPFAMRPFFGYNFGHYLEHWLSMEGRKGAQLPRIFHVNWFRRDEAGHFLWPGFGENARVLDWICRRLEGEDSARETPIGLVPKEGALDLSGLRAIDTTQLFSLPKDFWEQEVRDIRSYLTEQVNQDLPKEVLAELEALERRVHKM

[6] = biological target: T6, UBE2S C118 (Q16763) (Homo sapiens, UniProt Q16763)
T6 sequence (Q16763 1-222): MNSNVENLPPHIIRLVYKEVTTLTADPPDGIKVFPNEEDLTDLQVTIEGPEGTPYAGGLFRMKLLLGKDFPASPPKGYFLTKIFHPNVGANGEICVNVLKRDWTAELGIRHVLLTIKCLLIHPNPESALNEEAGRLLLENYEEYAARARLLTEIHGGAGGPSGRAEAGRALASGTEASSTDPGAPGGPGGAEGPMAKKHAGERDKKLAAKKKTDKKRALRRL

[7] = biological target: SMARCC2 C145 (Q8TAQ2) (Homo sapiens, UniProt Q8TAQ2)
Sequence of SMARCC2 C145 (Q8TAQ2) (Q8TAQ2 whole entry): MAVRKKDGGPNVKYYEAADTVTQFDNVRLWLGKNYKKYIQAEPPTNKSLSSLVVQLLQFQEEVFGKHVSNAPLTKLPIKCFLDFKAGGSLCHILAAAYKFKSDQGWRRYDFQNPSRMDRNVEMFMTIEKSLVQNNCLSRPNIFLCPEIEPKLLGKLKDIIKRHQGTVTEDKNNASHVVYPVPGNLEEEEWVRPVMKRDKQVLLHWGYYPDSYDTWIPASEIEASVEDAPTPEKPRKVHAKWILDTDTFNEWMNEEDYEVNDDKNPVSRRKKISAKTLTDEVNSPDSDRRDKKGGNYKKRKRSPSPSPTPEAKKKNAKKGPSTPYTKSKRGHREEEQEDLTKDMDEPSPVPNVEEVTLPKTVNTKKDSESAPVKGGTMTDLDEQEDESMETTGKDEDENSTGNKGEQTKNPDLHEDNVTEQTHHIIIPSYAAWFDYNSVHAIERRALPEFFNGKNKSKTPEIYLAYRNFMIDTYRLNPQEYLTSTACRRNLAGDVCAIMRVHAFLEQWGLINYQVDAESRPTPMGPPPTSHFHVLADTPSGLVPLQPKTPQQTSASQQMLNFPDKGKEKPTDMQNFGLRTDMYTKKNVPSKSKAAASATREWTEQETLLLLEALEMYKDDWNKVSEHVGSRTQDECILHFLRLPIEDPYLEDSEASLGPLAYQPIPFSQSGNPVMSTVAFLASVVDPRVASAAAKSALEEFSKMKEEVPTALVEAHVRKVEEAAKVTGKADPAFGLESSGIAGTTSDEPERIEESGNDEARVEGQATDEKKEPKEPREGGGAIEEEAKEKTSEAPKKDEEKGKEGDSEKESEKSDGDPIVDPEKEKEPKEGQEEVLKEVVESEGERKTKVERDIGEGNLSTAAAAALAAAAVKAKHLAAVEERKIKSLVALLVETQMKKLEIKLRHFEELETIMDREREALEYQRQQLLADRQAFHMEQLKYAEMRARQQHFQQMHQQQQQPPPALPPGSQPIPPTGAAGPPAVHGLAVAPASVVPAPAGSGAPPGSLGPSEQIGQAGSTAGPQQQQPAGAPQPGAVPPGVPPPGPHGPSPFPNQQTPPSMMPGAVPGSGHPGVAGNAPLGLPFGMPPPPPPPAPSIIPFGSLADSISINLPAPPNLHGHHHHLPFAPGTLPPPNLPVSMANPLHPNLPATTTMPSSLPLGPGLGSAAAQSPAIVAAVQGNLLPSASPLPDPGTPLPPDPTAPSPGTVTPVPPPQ

**Q.** O=C(CCl)Nc1cccc2ncccc12 [compound 51] was tested. Which “isoTOP-ABPP reactivity profile ratio, P24752_C126” value ([1]; in-vitro_ramos) did it give?
**A.** The value was 1.2.

**Q.** What about the “isoTOP-ABPP reactivity profile ratio, P24752_C126” value ([1]; in-vitro_ramos_231) of the same compound?
**A.** Its value is 1.0.

**Q.** What about the “isoTOP-ABPP reactivity profile ratio, P24752_C196” value ([2]; 500 μm, in-vitro_ramos_231) of the same compound?
**A.** The value was 1.1.

**Q.** And the “isoTOP-ABPP reactivity profile ratio, P24752_C413” value ([3]; in-vitro_ramos)?
**A.** Its value is 1.0.

**Q.** And the “isoTOP-ABPP reactivity profile ratio, P24752_C413” value ([3]; in-vitro_ramos_231)?
**A.** Its value is 1.0.

**Q.** What about the “isoTOP-ABPP reactivity profile ratio, P15374_C95” value ([4]; 500 μm, in-vitro_ramos) of the same compound?
**A.** The value was 0.9.

**Q.** And the “isoTOP-ABPP reactivity profile ratio, Q16822_C306” value ([5]; 500 μm, in-vitro_ramos)?
**A.** Its value is 0.8.

**Q.** And the “isoTOP-ABPP reactivity profile ratio, Q16763_C118” value ([6]; 500 μm, in-vitro_ramos)?
**A.** The value was 0.9.

**Q.** What about the “isoTOP-ABPP reactivity profile ratio, Q8TAQ2_C145” value ([7]; 500 μm, in-vitro_ramos) of the same compound?
**A.** Its value is 1.1.

**Q.** With C=CC(=O)Nc1cc(F)c(N2CCN(C(=O)OC(C)(C)C)CC2)c(F)c1 [compound 38] as the compound, how does the “isoTOP-ABPP reactivity ratio, P24752_C126” value ([1]; in-vitro_ramos) read?
**A.** The value was 1.4.

**Q.** What about the “isoTOP-ABPP reactivity ratio, P24752_C126” value ([1]; in-vitro_ramos_231) of the same compound?
**A.** The value was 1.0.

**Q.** And the “isoTOP-ABPP reactivity ratio, P24752_C196” value ([2]; 500 μm, in-vitro_ramos)?
**A.** Its value is 1.3.

**Q.** What about the “isoTOP-ABPP reactivity ratio, P24752_C196” value ([2]; 500 μm, in-vitro_ramos_231) of the same compound?
**A.** The value was 1.0.

**Q.** And the “isoTOP-ABPP reactivity ratio, P24752_C413” value ([3]; in-vitro_ramos)?
**A.** Its value is 20.0.

**Q.** What about the “isoTOP-ABPP reactivity ratio, P24752_C413” value ([3]; in-vitro_ramos_231) of the same compound?
**A.** The value was 1.1.

**Q.** And the “isoTOP-ABPP reactivity ratio, P15374_C95” value ([4]; 500 μm, in-vitro_ramos)?
**A.** Its value is 12.5.

**Q.** What about the “isoTOP-ABPP reactivity ratio, P15374_C95” value ([4]; 500 μm, in-vitro_ramos_231) of the same compound?
**A.** The value was 2.7.

**Q.** What about the “isoTOP-ABPP reactivity ratio, Q16822_C306” value ([5]; 500 μm, in-vitro_ramos_231) of the same compound?
**A.** Its value is 1.0.

**Q.** What about the “isoTOP-ABPP reactivity ratio, Q16763_C118” value ([6]; 500 μm, in-vitro_ramos) of the same compound?
**A.** Its value is 1.0.

**Q.** What about the “isoTOP-ABPP reactivity ratio, Q16763_C118” value ([6]; 500 μm, in-vitro_ramos_231) of the same compound?
**A.** The value was 1.0.

**Q.** What about the “isoTOP-ABPP reactivity ratio, Q8TAQ2_C145” value ([7]; 500 μm, in-vitro_ramos) of the same compound?
**A.** The value was 1.9.

**Q.** And the “isoTOP-ABPP reactivity ratio, Q8TAQ2_C145” value ([7]; 500 μm, in-vitro_ramos_231)?
**A.** The value was 1.1.

**Q.** O=C(CCl)Nc1cc(C(F)(F)F)cc(C(F)(F)F)c1 [compound 3] was tested. Which “R value (DMSO/fragment)” value ([1]; in vitro, MDA-MB-231) did it give?
**A.** Its value is 2.6.

**Q.** What about the “R value (DMSO/fragment)” value ([1]; invitro, ramos) of the same compound?
**A.** Its value is 2.4.

**Q.** What about the “R value (DMSO/fragment)” value ([2]; in vitro, MDA-MB-231) of the same compound?
**A.** Its value is 1.7.

**Q.** What about the “R value (DMSO/fragment)” value ([2]; invitro, ramos) of the same compound?
**A.** Its value is 3.1.

**Q.** And the “R value (DMSO/fragment)” value ([3]; 500 μM, in vitro, MDA-MB-231)?
**A.** Its value is 15.3.

**Q.** What about the “R value (DMSO/fragment)” value ([3]; 500 μM, invitro, ramos) of the same compound?
**A.** The value was 20.0.

**Q.** And the “R value (DMSO/fragment)” value ([4]; in vitro, MDA-MB-231)?
**A.** The value was 1.7.

**Q.** And the “R value (DMSO/fragment)” value ([4]; invitro, ramos)?
**A.** Its value is 1.4.

**Q.** What about the “R value (DMSO/fragment)” value ([5]; 500 μM, in vitro, MDA-MB-231) of the same compound?
**A.** Its value is 10.6.

**Q.** What about the “R value (DMSO/fragment)” value ([5]; 500 μM, invitro, ramos) of the same compound?
**A.** The value was 0.9.

**Q.** And the “R value (DMSO/fragment)” value ([6]; 500 μM, in vitro, MDA-MB-231)?
**A.** Its value is 1.3.

**Q.** And the “R value (DMSO/fragment)” value ([6]; 500 μM, invitro, ramos)?
**A.** The value was 1.5.

**Q.** And the “R value (DMSO/fragment)” value ([7]; 500 μM, in vitro, MDA-MB-231)?
**A.** The value was 9.7.

**Q.** And the “R value (DMSO/fragment)” value ([7]; 500 μM, invitro, ramos)?
**A.** Its value is 6.6.

**Q.** For C=CC(=O)N(c1ccccc1)c1ccc(Br)cc1 [compound 5], which “isoTOP-ABPP ratio, P24752_C126” value ([1]; invitro, 231) is on record?
**A.** The value was 0.9.

**Q.** What about the “isoTOP-ABPP ratio, P24752_C126” value ([1]; invitro, ramos) of the same compound?
**A.** The value was 1.3.

**Q.** What about the “isoTOP-ABPP ratio, P24752_C196” value ([2]; invitro, 231) of the same compound?
**A.** Its value is 1.5.

**Q.** And the “isoTOP-ABPP ratio, P24752_C196” value ([2]; invitro, ramos)?
**A.** The value was 2.2.

**Q.** And the “isoTOP-ABPP ratio P24752_C413” value ([3]; 500 μM, invitro, 231)?
**A.** Its value is 1.3.

**Q.** And the “isoTOP-ABPP ratio, P15374_C95” value ([4]; invitro, 231)?
**A.** The value was 1.5.

**Q.** And the “isoTOP-ABPP ratio, P15374_C95” value ([4]; invitro, ramos)?
**A.** The value was 1.1.

**Q.** What about the “isoTOP-ABPP ratio, Q16822_C306” value ([5]; 500 μM, invitro, 231) of the same compound?
**A.** The value was 1.7.

**Q.** What about the “isoTOP-ABPP ratio, Q16763_C118” value ([6]; 500 μM, invitro, 231) of the same compound?
**A.** Its value is 2.8.

**Q.** What about the “isoTOP-ABPP ratio Q8TAQ2_C145” value ([7]; 500 μM, invitro, ramos) of the same compound?
**A.** The value was 2.8.

— patent publication US10670605B2, “Cysteine reactive probes and uses thereof” (The Scripps Research Institute, priority 2015, dated 2020)
